Seven compounds from US20240043808A1, “Screenable Liver Disease Models and Methods” (INSPHERO AG, priority 2016, published 2024) can be followed below.

Data set [1] concerns liver microtissues. The data set can be described thus: Lipid loading of liver microtissues, nile-red staining of lipid accumulation (steatosis). The settings on record: for lipid accumulation in microtissues: increasing concentrations of free fatty acid, nile-red staining. Type of data set: cell-based. On the procedure: FIG. 3A(1): Induction of liver-disease phenotype “steatosis” as determined by lipid accumulation. […] Images are depicted as maximal intensity projections.
FIG. 3A (2): Lipid accumulation in dependency of increasing concentrations of PA, OA or a combination thereof in a molar ratio of 2:1. The total amount of FFA was identical among the groups at a given concentration.
(§1) • Dissolve FFA-free BSA at RT for 1h in H2O for desired stock solution concentration • Dissolve desired amount of OA-Na in 1 mL 0.1 M NaOH-->at 70° C. • Dissolve desired amount of PA-Na 1 mL 0.1 M NaOH-->at 70° • Keep the FFAs on 70° C., while the BSA is placed on 37° C. • Mix FFA with BSA with a magnetic stirrer (for 30 min) • Dilute BSA with 0.1 M NaOH->vehicle control • Cool down to RT, sterile filter, aliquot and freeze. • For a final fatty acid (FA) solution dilute master stock in medium. • Replace medium of liver microtissues with FA-containing medium and incubate 2-7 days.

The subject of data set [2] is liver microtissues. The data set can be described thus: ATP measurement after exposure of liver microtissues to free fatty acids. Type of data set: cell-based. As to conditions: increasing concentrations of FFA for 3-14 days; control BSA. On the procedure:
FIG. 3A(3): ATP measurements from identical groups after exposure to increasing concentrations of FFA for 3-14 days.
as §1

Data set [3] deals with liver MT triple-culture (hepatocyte+inflammatory cells+stellate cells). Nature of the data set: Pro-fibrotic gene expression in liver MT triple-culture treated with pro-fibrotic compounds. The settings on record: co-cultured microtissues, 14 days. As for the experimental part: MT mRNA was extracted using TRIzol conventional procedure and fold induction were calculated as 2^(−ΔΔCT) for each sample and negative control and expressed as mean fold induction±S.E.M. of three replicates with six MTs each. Actin was used as reference gene for each sample.

The test system is the same in data set [4]. The data set can be described thus: Viability of liver MT triple-culture treated with pro-fibrotic compounds. As to conditions: co-cultured microtissues, exposure over 14 days.
Data set [5] deals with liver endothelial cells (LEC). The settings on record: 5 days treatment, sub-toxic doses, LEC-coated microtissues. The source says:
FIG. 7: Assessment of LEC-specific toxicity.
Spheroidal liver microtissues containing hepatocytes and Kupffer cells were coated with liver endothelial cells (LEC) and subjected to 5 days treatment with sub-toxic doses of Acetaminophen (APAP), Cyclophosphamide and Monocrotaline (FIG. 7). After the treatment, microtissues were collected, formalin fixed and paraffin embedded, sliced and stained by immunohistochemistry for the LEC-marker CD31.

In data set [6] the test system is mono-cultured (HepaRG) and triple/co-cultured (HepaRG THP1/hTERT-HSC) liver MT. The data set can be described thus: Gene expression of fibrotic markers and cytokines in liver MT exposed to LPS, TNF-α and TGF-β1. Type of data set: cell-based, human. As to conditions: for IL-6 gene induction: HepaRG monocultures. The source says: Induction of fibrosis biomarkers, Collagen I and IV upon treatment with inflammation-stimuli LPS or TNF-α and pro-fibrotic TGF-β1 signaling molecule. […] Actin was used as reference gene for each sample. ND: no-detected values. *; P≤0.05.
In order to assess the responsiveness towards prototypic inflammatory stimuli and pro-fibrotic stimuli on a gene-expression level, mono-cultured (HepaRG) and triple/co-cultured (HepaRG THP1/hTERT-HSC) liver MT were stimulated with inflammatory inducers (LPS or TNF-α) and the pro-fibrotic cytokine TGF-β1 to assess the cellular responses. Significant differences in the responses of the two types of MT were observed (FIG. 4). […] For example, mRNA of collagen I was only detected in the co-culture system, but not in the monocultures.

For data set [7], the system named is Human liver microtissues (+Kupffer cells) with stellate cells. The data set can be described thus: Inhibition of fibrosis progression, immunohistochemical staining of collagen I. It counts as cell-based. The settings on record: 7 days treatment, stellate cell comprising microtissues, in presence of TGF-β1. The source says:
FIG. 6: Therapeutic effect of inhibition of pro-fibrotic effector pathways (TGF-βR, TK-R) was confirmed in triple co-culture liver MTs. Human liver MTs prepared form primary human hepatocytes, primary human Kupffer cells and primary human stellate cells where treated with TGF-β1 alone, or in combination with undisclosed inhibitors of i) TGF-β1 receptor, ii) ALK5, and iii) Tyrosine Kinase receptors.
Human liver microtissues (+Kupffer cells) without stellate cells and with either a stellate cell line or primary human stellate cells were treated with a fibrosis inducer (TGF-β1) and in combination with an undisclosed fibrosis inhibitor. […] Even more pronounced is the difference between TGF-β1 treated stellate cell comprising microtissues and TGF-β1/inhibitor treated cultures.

For data set [8], the system named is triple/co-cultured (HepaRG THP1/hTERT-HSC) liver MT. The data set can be described thus: MTT viability of liver MT stimulated with inflammatory and pro-fibrotic stimuli. It counts as cell-based, human. The settings on record: co-cultured microtissues, 14 days of treatment.

“Also recorded” adds a separate entry of the source. Where two headings read alike, the source gives them in different places.

As to `CCCCCCCC/C=C\CCCCCCCC(=O)O` [OA, Oleate], in the data set with liver microtissues [1] (FIG. 3A1), the “steatosis phenotype (lipid droplets in hepatocytes)” value is recorded as “small lipid droplets (microvesicular steatosis)”.

In the case of `CCCCCCCCCCCCCCCC(=O)O` [PA, palmitic acid], in the data set on liver microtissues [1], the “steatosis phenotype (lipid droplets in hepatocytes)” value is on record as “rather macrovesicular phenotype” and the “lipid accumulation in microtissues” value is recorded as “reduced lipid incorporation at concentrations higher than PA3”. In the data set on liver microtissues [1] (listed as Palmitate), the “lipid accumulation in microtissues” value was “induced lipid accumulation”. Further, in the data set with liver microtissues [2], the ATP result is “decreased values in microtissues exposed to PA4 and higher”.

On to `CC(=N)S` [TAA, Thiocetamide], for which the “transcriptional induction of collagen I, collagen IV, fibronectin I and CD44” value in data set [3] is “greatly enhanced; also recorded: dose-dependent transcriptional induction”. In addition, in data set [4], the MT viability result is reported as “Dose-dependent loss of viability or metabolic activity; also recorded: dose-dependent decrease”.

For the compound `O=P1(N(CCCl)CCCl)NCCCO1` (centres unmarked) [cyclosphosphamide, Cyclophosphamide], the “LEC-marker CD31 (immunohistochemistry)” value in data set [5] is “heavily reduced or completely absent”; in data set [5] (listed as Cyclosphosphamide), “reduced LEC-presence”.

`C[C@H]1C(=O)O[C@@H]2CCN3CC=C(COC(=O)[C@](C)(O)[C@]1(C)O)[C@H]23` [monocrotalin, Monocrotaline]: the “LEC-marker CD31 (immunohistochemistry)” value is “heavily reduced or completely absent” in data set [5] and “reduced LEC-presence” in data set [5] (listed as Monocrotaline).

“TGF-β1: pro-fibrotic cytokine, fibrosis inducer”: the IL-6 gene induction result in data set [6] is “did not induce”. Besides, in data set [6] (co-cultures), the IL-6 gene expression result is recorded as “observed in co-cultures”. Also, the “fibrotic phenotype, collagen I deposition” value in data set [7] is recorded as “severe fibrotic phenotype with collagen deposition”. The cellular viability result in data set [8] is “decreased viability”.

TNF-α: the IL-6 gene induction entry in data set [6] was “strongly responsive”. The cellular viability entry in data set [8] is listed as “increased cellular viability”.
